Measurements reported in paper PMC7419010 (PLoS Pathogens, 2020).

Columns and labels:
[1] = system: Lsa-nAChR-α1 and Lsa-nAChR-α2 with Lsa-nAChR-β1 and APs (Lsa-nAChR-β2 removed); assay: Two-electrode voltage-clamp, oocytes with Lsa-nAChR-α1, -α2, -β1 and APs (Lsa-nAChR-β2 removed); format: cell-based, Lepeophtheirus salmonis; settings: Lsa-nAChR-β2 removed from injection mix
Excerpt: (§1) To determine the subunit composition of the functional L. salmonis nAChR channel, we tried different possible combinations of the six nAChR subunit (α1, α2, α3, α7, β1 and β2) cRNAs along with the cRNAs from the three AP, injected into X. laevis oocytes, which is one of the most commonly used systems for functional expression of nAChRs. Three to five days after injection, the presence of a functional nAChR was investigated by the two-electrode voltage-clamp method. To determine the relative contribution of each gene for the functional expression of nAChR, we removed cRNAs from the injection mixture, either singularly or in combination (Fig 2). […]
(§2) Oocytes were impaled with two electrodes filled with 3 M KCl, and their membrane potentials were maintained at -80 mV throughout the experiment. Currents evoked by ACh or drugs were recorded using an automated process equipped with standard two-electrode voltage-clamp configuration (HiClamp, MultiChannel Systems). […] Data were captured at 100 Hz, filtered at 10 Hz, and analyzed using proprietary data acquisition and analysis software running under Matlab (Mathworks Inc., Natick, MA, USA). […] Plots of the peak inward currents as a function of the logarithm of the agonist concentration yield classical concentration-activation curves were readily fitted by single Hill equations. […]

[2] = system: hybrid Locusta migratoria/Rattus norvegicus nAChR; design: method as in earlier work; settings: hybrid receptor in Xenopus oocytes; ref 25 (Bao et al.); cited from earlier work
[3] = molecular target: T1, Lsa-nAChR2 (α3β1β2) (Lepeophtheirus salmonis, UniProt A0A7S5PZ03+A0A7S5PZ05+A0A7S5Q7H3); assay: cell-based; format: cell-based
Method: (§3) Capped cRNAs were synthesized (T7 mMessage mMachine kit, Ambion, Austin, TX, USA) from the linearized vectors containing the different subunits according to the manufacturer’s protocol. cRNA samples were stored at -80°C until use. Oocytes were ordered from Ecocyte (Germany). Oocytes were microinjected using a Roboinject automatic injection system (Multi Channel Systems, Reutlingen, Germany) with 15–25 nl of cRNA solution (30–300 ng/μl per subunit) and then incubated at 18°C in sterile filtered Barth solution containing: NaCl (88 mM), KCl (1 mM), NaHCO3 (2.4 mM), HEPES (10 mM, pH 7.5), MgSO4·7H2O (0.82 mM), Ca(NO3)2·4H2O (0.33 mM), CaCl2·6H2O (0.41 mM), at pH 7.4, and supplemented with 20 μg/ml of kanamycin, 100 U/ml benzylpenicillin and 100 μg/ml streptomycin. Recordings were made 3–5 days post-cRNA injection.
(§4) Oocytes were impaled with two electrodes filled with 3 M KCl, and their membrane potentials were maintained at -80 mV throughout the experiment. Currents evoked by ACh or drugs were recorded using an automated process equipped with standard two-electrode voltage-clamp configuration (HiClamp, MultiChannel Systems). The principle of this system differs from standard electrophysiology because, instead of applying the compound in the perfusion, the oocyte is moved into a well from a 96-well microtiter plate containing the desired solution. Data were captured at 100 Hz, filtered at 10 Hz, and analyzed using proprietary data acquisition and analysis software running under Matlab (Mathworks Inc., Natick, MA, USA). Additional analyses were performed in Excel (Microsoft, Redmond, WA, USA). […] Concentration-activation curves were fitted with the equation: Y=100/1+10^H(logEC50−X) (1) where Y is the normalized response, logEC50 is the logarithm of the concentration of agonist eliciting half-maximal current amplitude, X is the log of dose or concentration, and H is the slope factor or Hill slope. Individual curves were standardized to the initial ACh (100 μM) application amplitude and subsequently averaged. EC50 values were determined from the mean of at least 3 or more cells.
(§5) Dose-response curves were obtained by sequential applications for 10s of increasing concentrations of ACh or drugs to oocytes expressing Lsa-nAChR1 or Lsa-nAChR2. A total time of 90 s time was allowed between applications for the channel to recover from any desensitization. To test the antagonistic effect of DHbE (Fig 5) and for the screening protocol (Fig 6), cells that evoked a significant current with ACh were exposed to the test compounds at 10 μM respectively 1 μM using a pre-application of 45 s and co-application of 10 s with ACh (1 μM).

[4] = molecular target: T2, Lsa-nAChR1 (α1α2β1β2) (Lepeophtheirus salmonis, UniProt A0A7S5PZ05+A0A7S5Q3W4+A0A7S5Q7H3+A0A7S5U9A3); assay: cell-based; format: cell-based
Method: as §3, §4, §5

[5] = system: six nAChR subunits (α1, α2, α3, α7, β1 and β2) and the three APs; assay: Two-electrode voltage-clamp, oocytes co-injected with all six nAChR subunits and three ancillary proteins; format: cell-based, Lepeophtheirus salmonis; settings: equimolar co-injection
Excerpt: as §1, §2

[6] = molecular target: T2, Lsa-nAChR1 (α1α2β1β2); format: cell-based; settings: co-applied at 10 μM, both ratios (10:1 and 1:10)
[7] = molecular target: T1, Lsa-nAChR2 (α3β1β2); format: cell-based; settings: co-applied at 10 μM, both ratios (10:1 and 1:10)
[8] = oocytes exposed to acetylcholine

T2 sequence (A0A7S5PZ05 entry or part of it): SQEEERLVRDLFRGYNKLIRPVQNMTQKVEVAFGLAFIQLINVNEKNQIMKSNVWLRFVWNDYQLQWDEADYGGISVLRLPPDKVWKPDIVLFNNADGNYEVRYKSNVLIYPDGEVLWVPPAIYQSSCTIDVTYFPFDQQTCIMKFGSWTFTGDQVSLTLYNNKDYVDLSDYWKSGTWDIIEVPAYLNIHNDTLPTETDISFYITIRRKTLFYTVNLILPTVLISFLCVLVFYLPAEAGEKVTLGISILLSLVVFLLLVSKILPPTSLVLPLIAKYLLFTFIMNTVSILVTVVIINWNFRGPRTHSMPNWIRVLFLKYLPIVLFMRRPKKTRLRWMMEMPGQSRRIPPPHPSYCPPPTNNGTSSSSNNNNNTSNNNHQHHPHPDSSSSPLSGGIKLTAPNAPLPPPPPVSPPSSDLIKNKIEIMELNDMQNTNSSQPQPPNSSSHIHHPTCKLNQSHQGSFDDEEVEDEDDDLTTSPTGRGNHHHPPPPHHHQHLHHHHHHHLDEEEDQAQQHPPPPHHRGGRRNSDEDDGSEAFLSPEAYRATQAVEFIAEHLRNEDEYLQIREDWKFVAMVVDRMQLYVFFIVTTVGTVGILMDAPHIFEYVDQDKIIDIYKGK
T2 sequence (A0A7S5Q3W4 entry or part of it): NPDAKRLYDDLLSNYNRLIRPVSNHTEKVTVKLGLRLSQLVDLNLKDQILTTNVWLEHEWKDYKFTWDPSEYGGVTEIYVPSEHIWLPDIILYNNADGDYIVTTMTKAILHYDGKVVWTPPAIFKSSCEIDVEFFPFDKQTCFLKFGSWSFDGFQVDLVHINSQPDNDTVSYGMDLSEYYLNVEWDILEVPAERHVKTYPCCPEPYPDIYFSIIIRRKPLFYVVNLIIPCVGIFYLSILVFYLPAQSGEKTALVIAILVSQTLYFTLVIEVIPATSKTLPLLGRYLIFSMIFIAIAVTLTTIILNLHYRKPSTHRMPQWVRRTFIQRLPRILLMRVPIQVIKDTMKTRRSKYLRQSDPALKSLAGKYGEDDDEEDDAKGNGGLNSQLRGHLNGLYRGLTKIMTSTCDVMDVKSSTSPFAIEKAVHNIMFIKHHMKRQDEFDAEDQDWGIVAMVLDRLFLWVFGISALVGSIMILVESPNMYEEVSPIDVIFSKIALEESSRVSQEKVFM
T2 sequence (A0A7S5U9A3 entry or part of it): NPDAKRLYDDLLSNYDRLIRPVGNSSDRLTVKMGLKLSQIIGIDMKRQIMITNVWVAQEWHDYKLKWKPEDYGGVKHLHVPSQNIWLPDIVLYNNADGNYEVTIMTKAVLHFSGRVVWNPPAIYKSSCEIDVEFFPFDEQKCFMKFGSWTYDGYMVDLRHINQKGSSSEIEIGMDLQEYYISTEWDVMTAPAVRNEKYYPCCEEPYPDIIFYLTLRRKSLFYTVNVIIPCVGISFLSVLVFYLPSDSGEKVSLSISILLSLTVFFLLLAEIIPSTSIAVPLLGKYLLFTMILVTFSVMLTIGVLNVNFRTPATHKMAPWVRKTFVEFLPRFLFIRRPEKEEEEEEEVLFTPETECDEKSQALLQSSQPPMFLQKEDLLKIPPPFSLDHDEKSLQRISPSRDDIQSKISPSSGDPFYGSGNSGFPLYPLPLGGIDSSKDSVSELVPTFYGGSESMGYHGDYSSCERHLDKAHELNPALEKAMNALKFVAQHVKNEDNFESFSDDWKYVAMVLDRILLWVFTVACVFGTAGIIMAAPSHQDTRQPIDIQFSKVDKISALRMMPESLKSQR
T2 sequence (A0A7S5Q7H3 entry or part of it): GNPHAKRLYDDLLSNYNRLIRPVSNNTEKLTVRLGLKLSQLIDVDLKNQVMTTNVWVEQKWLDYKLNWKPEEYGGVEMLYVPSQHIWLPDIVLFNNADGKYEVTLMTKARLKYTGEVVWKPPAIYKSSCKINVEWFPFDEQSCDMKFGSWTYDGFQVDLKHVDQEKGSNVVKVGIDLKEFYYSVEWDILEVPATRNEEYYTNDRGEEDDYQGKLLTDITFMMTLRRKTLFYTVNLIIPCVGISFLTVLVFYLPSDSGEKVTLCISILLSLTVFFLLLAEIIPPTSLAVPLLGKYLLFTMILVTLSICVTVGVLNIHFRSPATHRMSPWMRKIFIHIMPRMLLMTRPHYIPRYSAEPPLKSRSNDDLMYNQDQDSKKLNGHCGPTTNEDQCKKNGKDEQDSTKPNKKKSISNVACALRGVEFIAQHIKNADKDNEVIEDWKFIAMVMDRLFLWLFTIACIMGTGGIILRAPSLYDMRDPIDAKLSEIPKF

Row | SMILES | current (median) with 100 μM ACh [1] [μA] | maximum response to acetylcholine [2] [μA] | type of effect on the receptor (agonist / partial-agonist / super-agonist / no effect) ([3]; dose-response, 1:1 (α:β) ratio) | Max peak (% Ach) ([3]; maximal peak current compared to ACh 100 μM, 1:1 (α:β) ratio) [%] | averaged maximum response [3, 8] [μA] | Mean Hill Slope ± SD ([3]; ratio α/β 1:10) | Mean max current (μA) ([3]; ratio α/β 1:10) | Mean Hill Slope ± SD ([3]; ratio α/β 10:1) | Mean max current (μA) ([3]; ratio α/β 10:1) | current (median) with 100 μM ACh ([4]; Lsa-nAChR-α1 and -α2 with both β subunits and APs) [μA] | type of effect on the receptor (agonist / partial-agonist / no effect) ([4]; dose-response, 1:1 (α:β) ratio) | averaged maximum response [4, 8] [μA] | Mean Hill Slope ± SD ([4]; ratio α/β 1:10) | Mean max current (μA) ([4]; ratio α/β 1:10) | Mean Hill Slope ± SD ([4]; ratio α/β 10:1) | Mean max current (μA) ([4]; ratio α/β 10:1) | Emax ([4]; read-out: Max peak (% Ach)) [%] | current (median) with 100 μM ACh [5] [μA] | inhibition of the ACh-triggered (10 μM) response [6] | inhibition of the ACh-triggered (10 μM) response [7]
1 | CC(=O)OCC[N+](C)(C)C [Acetylcholine] | 0.17 | 0.24 | agonist | 100 | > 5 | 1.25 ± 0.23 | 3.17 | 1.30 ± 0.22 | 2.52 | 4.50 | agonist | > 5 | 1.44 ± 0.52 | 8.35 | 1.46 ± 0.37 | 4.85 | 100 | 17.00 | – | –
2 | CO[C@H]1CC=C2CCN3CCC4=C(CC(=O)OC4)[C@]23C1 [DHbE, Dihydro-β-erythroidine] | – | – | – | – | – | – | – | – | – | – | – | – | – | – | – | – | – | – | completely inhibit | completely inhibit
